In patent US20140329863A1 (priority 2011, published 2014):
Read-outs that look alike come from different tables or passages of the source.

Columns and labels:
[1] = tested on: PrP^Sc in dividing ScN2a-cl3 cells; format: cell-based, mouse; design: Dividing ELISA pEC50 (μM) 1st Expt. / Dividing ELISA pEC50 (μM) 2nd Expt. / Dividing ELISA pEC50 (μM) 3rd Expt. / Dividing ELISA pEC50 (μM) Mean: unit not given here; conditions: ScN2a-cl3 dividing cells
N2a-cl3 cells = test: cells; conditions: Mus musculus, N2a-cl3, read-out: Dividing Calcein EC50 (μM) Mean (n = 3)
[2] = tested on: PrP^Sc in nondividing ScN2a-cl3 cells; format: cell-based, mouse; conditions: read-out: Non-Dividing ELISA EC50 (μM) Mean (n = 3); ScN2a-c13 non-dividing cells; mean n = 3
[3] = read-out: Dividing ELISA EC50 (μM) 1st Expt., 1st determination
[4] = read-out: Dividing ELISA EC50 (μM) 2nd Expt., 2nd determination
[5] = read-out: Dividing ELISA EC50 (μM) 3rd Expt., 3rd determination
[6] = read-out: Dividing ELISA EC50 (μM) Mean, mean of three determinations

| SMILES | Dividing ELISA pEC50 (μM) 1st Expt. ([1]; 1st determination) | Dividing ELISA pEC50 (μM) 2nd Expt. ([1]; 2nd determination) | Dividing ELISA pEC50 (μM) 3rd Expt. ([1]; 3rd determination) | EC50 [1, 3] | EC50 [1, 4] | EC50 [1, 5] | EC50 [1, 6] | EC50 (N2a-cl3 cells) | melting point | EC50 [2] | Dividing ELISA pEC50 (μM) Mean ([1]; mean of three determinations) |
| --- | --- | --- | --- | --- | --- | --- | --- | --- | --- | --- | --- |
| COc1ccc(-c2csc(Nc3ccncc3)n2)cc1OC [compound 8, [4-(3,4-dimethoxyphenyl)-thiazol-2-yl]pyridin-4-yl-amine] | >4.5 | 4.60 | 4.57 | > 32 µM | 25.2 µM | 26.9 µM | > 28 µM | > 32 µM | 205 to 207 °C | > 32 µM | – |
| COc1ccc(-c2csc(Nc3ccccn3)n2)cc1OC [compound 6, [4-(3,4-dimethoxyphenyl)-thiazol-2-yl]pyridin-2-yl-amine] | – | – | – | 11.8 µM | 6.47 µM | 6.38 µM | 8.22 µM | > 32 µM | 211 to 214 °C | > 32 µM | – |
| COc1ccc(-c2csc(NC(=O)c3cc4ccccc4cn3)n2)cc1OC [compound 47, Isoquinoline-3-carboxylic acid [4-(3,4-dimethoxyphenyl)-thiazol-2-yl]amide] | 5.01 | 5.41 | 4.97 | 9.81 µM | 3.93 µM | 10.8 µM | 8.18 µM | > 10 µM | 228 to 230 °C | > 10 µM | 5.13 |
| COc1ccc(-c2csc(C(=O)Nc3cc4ccccc4cn3)n2)cc1OC [compound 48, 4-(3,4-dimethoxyphenyl)-thiazole-2-carboxylic acid isoquinolin-3-ylamide] | >4.5 | >4.5 | >4.5 | > 10 µM | > 10 µM | > 10 µM | > 10 µM | > 10 µM | 196 to 202 °C | > 10 µM | – |
| COc1ccc(-c2csc(Nc3ccc(C)cn3)n2)cc1 [compound 21, [4-(4-Methoxyphenyl)-thiazol-2-yl]-(5-methylpyridin-2-yl)-amine] | 5.30 | 5.72 | 5.66 | 5.02 µM | 1.89 µM | 2.19 µM | 3.03 µM | > 32 µM | 246 to 248 °C | > 32 µM | 5.56 |
| COc1ccc(-c2csc(Nc3cnccn3)n2)cc1OC [compound 11, [4-(3,4-dimethoxyphenyl)-thiazol-2-yl]pyrazin-2-yl-amine] | 4.59 | 5.03 | 4.93 | 26 µM | 9.23 µM | 11.7 µM | 15.6 µM | > 32 µM | 205 to 207 °C | > 32 µM | 4.85 |
| COc1ccccc1-c1csc(Nc2ccc(C)cn2)n1 [compound 22, [4-(2-Methoxyphenyl)-thiazol-2-yl]-(5-methylpyridin-2-yl)-amine] | >4.5 | 4.58 | 4.52 | > 32 µM | 26.1 µM | 30.2 µM | > 29 µM | > 32 µM | 228 to 230 °C | > 32 µM | – |
| COc1ccc(NC(=O)c2csc(Nc3ccc(C)cn3)n2)cc1OC [compound 46, 2-(5-Methylpyridin-2-ylamino)-thiazole-4-carboxylic acid (3,4-dimethoxyphenyl)-amide] | 5.50 | 5.72 | 5.66 | 3.19 µM | 1.93 µM | 2.21 µM | 2.44 µM | > 32 µM | 212 to 214 °C | > 32 µM | 5.62 |
| COc1ccc(-c2csc(Nc3ncccc3C)n2)cc1OC [compound 15, [4-(3,4-dimethoxyphenyl)-thiazol-2-yl]-(3-methylpyridin-2-yl)-amine] | 4.89 | 5.68 | 5.17 | 13 µM | 2.07 µM | 6.81 µM | 7.29 µM | > 32 µM | 264 to 266 °C | > 32 µM | 5.25 |
| c1ccc(-c2csc(Nc3cc4ccccc4cn3)n2)cc1 [compound 33, Isoquinolin-3-yl-(4-phenylthiazol-2-yl)-amine] | 5.69 | 5.55 | 5.37 | 2.06 µM | 2.85 µM | 4.32 µM | 3.08 µM | > 32 µM | 265 to 267 °C | > 32 µM | 5.53 |
| Cc1ccc(Nc2nc(-c3ccc(-c4ccccn4)s3)cs2)nc1 [compound 26, (5-Methylpyridin-2-yl)-[4-(5-pyridin-2-yl-thiophen-2-yl)-thiazol-2-yl]-amine] | 5.80 | 6.06 | 5.91 | 1.58 µM | 0.879 µM | 1.22 µM | 1.23 µM | > 32 µM | 197 to 199 °C | > 32 µM | 5.92 |
| COc1ccc(-c2csc(N(C)c3cc4ccccc4cn3)n2)cc1OC [compound 49, [4-(3,4-dimethoxyphenyl)-thiazol-2-yl]-isoquinolin-3-yl-methyl-amine] | 6.82 | 6.71 | 7.08 | 0.152 µM | 0.196 µM | 0.083 µM | 0.144 µM | > 10 µM | 165 to 166 °C | > 10 µM | 6.87 |
| Cc1cccc(Nc2nc(-c3cc(-c4ccccc4)no3)cs2)n1 [compound 44, (6-Methylpyridin-2-yl)-[4-(3-phenylisoxazol-5-yl)-thiazol-2-yl]-amine] | 6.03 | 6.13 | 6.10 | 0.926 µM | 0.733 µM | 0.794 µM | 0.818 µM | > 32 µM | 291 to 293 °C | > 32 µM | 6.09 |
| c1ccc(-c2cc(-c3csc(Nc4ccncc4)n3)on2)cc1 [compound 45, [4-(3-Phenylisoxazol-5-yl)-thiazol-2-yl]-pyridin-4-yl-amine] | 5.50 | 5.49 | 5.17 | 3.16 µM | 3.25 µM | 6.83 µM | 4.42 µM | > 32 µM | 269 to 270 °C | > 32 µM | 5.38 |
| COc1ccc(-c2csc(Nc3ncccn3)n2)cc1OC [compound 10, [4-(3,4-dimethoxyphenyl)-thiazol-2-yl]pyrimidin-2-yl-amine] | 5.49 | 5.17 | 5.73 | 3.25 µM | 6.71 µM | 1.85 µM | 3.94 µM | > 32 µM | 225 to 228 °C | > 32 µM | 5.46 |
| COc1ccc(-c2csc(Nc3cc(C)ccn3)n2)cc1OC [compound 16, [4-(3,4-dimethoxyphenyl)-thiazol-2-yl]-(4-methylpyridin-2-yl)-amine] | 5.95 | 6.13 | 5.95 | 1.13 µM | 0.736 µM | 1.13 µM | 1 µM | > 32 µM | 211 to 213 °C | > 32 µM | 6.01 |
| COc1ccc(-c2csc(Nc3cccc(C)n3)n2)cc1OC [compound 4, [4-(3,4-dimethoxyphenyl)-thiazol-2-yl]-(6-methylpyridin-2-yl)-amine] | 5.25 | 5.92 | 5.65 | 5.62 µM | 1.19 µM | 2.22 µM | 3.01 µM | > 32 µM | 264 to 266 °C | > 32 µM | 5.61 |
| Cc1ccc(Nc2nc(-c3ccccn3)cs2)nc1 [compound 24, (5-Methylpyridin-2-yl)-(4-pyridin-2-yl-thiazol-2-yl)-amine] | – | – | – | 1.62 µM | 0.507 µM | 0.449 µM | 0.86 µM | 0.389 µM | 184 to 190 °C | > 32 µM | – |
